Measurements reported in publication PMC10041525, “New Dual Inhibitors of Bacterial Topoisomerases with Broad-Spectrum Antibacterial Activity and In Vivo Efficacy against Vancomycin-Intermediate Staphylococcus aureus” (Journal of Medicinal Chemistry, 2023).

Assays:
[1] = tested on: Chinese hamster ovary K1 cells; settings: 150 µM
[2] = tested on: Chinese hamster ovary K1 cells; assay: in vitro micronucleus test; settings: with S9, 150 µM

With `c1ccc2c(c1)cc1ccc3cccc4ccc2c1c34` [Benzo[a]pyrene] the “% Cytostasis” value [1] was 8.3% and the No. binucleate cells [2] was 1702.
